Measurements taken from patent US9745339B2 (GRAFFINITY PHARMACEUTICALS GMBH, priority 2012, dated 2017).

Tests used:
Bevacizumab [1] = target: T1, Bevacizumab (Homo sapiens, UniProt P01857); assay: Uptake kinetics by batch adsorption (time-scale of binding); conditions: time after which 80% of equilibrium saturation occurred; 0.75 mg/ml Bevacizumab in PBS, 25° C.
T1 construct: 0.5 mg/ml IgG in PBS pH 7.3; ligand immobilized on SEPHAR; Bevacizumab Yield; other: mass eluted (glycine pH 2.5) / mass injected; kd (dissociation constant, Langmuir isotherm); other: Bevacizumab 0.05-5 mg/ml in PBS pH 7.3, 25° C., at least 3 h; qm (maximum capacity); other: mg Bevacizumab per ml of resin; Langmuir isotherm; t0; fused on or other part: Humanized anti-VEGF-A VH domain joined N-terminally to the IGHG1 constant region (engineered, no UniProt entry)
Method: Uptake kinetics was investigated similarly by batch adsorption in 96-well filter plates. Again, 10 μl of sorbent slurry (50% v/v) were mixed with 100 μl of protein solution. […] Reactions were agitated vigorously at 25° C. for up to 80 min. Supernatants were separated rapidly by spinning through filters after 2.5, 5, 10, 20, 40 and 80 minutes and sampled for analysis. Concentrations of the antibody were analyzed by Bradford assay.
For determination of t0.8, measured concentrations in the supernatant were interpolated by fitting of double-exponentials and values of t0.8 were read out from graphs (2).

Bevacizumab [2] = target: T1, Bevacizumab; assay: Microtiter plate chromatography of resins: binding and elution of Bevacizumab; conditions: for Bevacizumab Bound: fraction of injected protein bound, 0.5 mg/ml IgG in PBS pH 7.3, ligand immobilized on SEPHAROSE 4 FF; for Bevacizumab Yield: mass eluted (glycine pH 2.5) / mass injected
Summary of the method: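 About 30 μl packed resin columns loaded with 3.3 cv IgG at 0.5 mg ml^−1 in PBS or undiluted HCP, washed with 5 cv PBS, eluted with 5 cv glycine pH 2.5. Protein in fractions by Bradford. Bound fraction = (injected − flowthrough)/injected; yield = eluted/injected; selectivity = Bevacizumab bound fraction / HCP bound fraction, truncated beyond 10.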

[3] = Alkaline stability of ligands in 0.5 M sodium hydroxide; type: physicochemical; conditions: 25° C., 8 days, hydrolysis monitored by LC-MS, read-out: t0.5 (half-life) (converted)
Method: A subset of ligands from Example 1 was tested for its alkaline stability. Ligands were treated with 0.5 M sodium hydroxide at 25° C. for 8 days. Hydrolysis was monitored by LC-MS analysis.

Bevacizumab [4] = target: T1, Bevacizumab; assay: Langmuir isotherms by batch adsorption; type: binding; conditions: for qm (maximum capacity): mg Bevacizumab per ml of resin, Langmuir isotherm; for Kd: Bevacizumab 0.05-5 mg/ml in PBS pH 7.3, 25° C., at least 3 h, read-out: kd (dissociation constant, Langmuir isotherm) (converted)
Cetuximab = assay: Microtiter plate chromatography of resins: binding and elution of Cetuximab; conditions: fraction of injected protein bound; 0.5 mg/ml IgG in PBS pH 7.3
Summary of the method: (§1)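 About 30 μl resin columns loaded with 3.3 cv IgG at 0.5 mg ml^−1 in PBS (or undiluted HCP), washed with 5 cv PBS, eluted with 5 cv glycine pH 2.5. Fractions quantified by Bradford; bound fraction = (mi−mft)/mi, yield = me/mi.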

host cell proteins (HCP) = assay: Microtiter plate chromatography of resins: binding of host cell proteins; set-up: species or system CHO cell culture; conditions: fraction of injected undiluted host cell proteins bound
Summary of the method: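 Undiluted HCP-containing flowthrough from protein A chromatography of CHO serum-free culture was loaded onto ~30 µl packed resin columns in microtiter-plate format. Columns were washed with 5 cv PBS and eluted with glycine pH 2.5, and fractions were quantified by Bradford. Bound fraction = (injected − flowthrough mass)/injected mass.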

[5] = system: poly-IgG from human serum (h-poly-IgG); assay: Microtiter plate chromatography of resins: binding and elution of human poly-IgG; conditions: fraction of injected protein bound; 0.5 mg/ml IgG in PBS pH 7.3
Summary of the method: as §1

Tocilizumab = assay: Microtiter plate chromatography of resins: binding and elution of Tocilizumab; conditions: fraction of injected protein bound; 0.5 mg/ml IgG in PBS pH 7.3
Summary of the method: as §1

Palivizumab = assay: Microtiter plate chromatography of resins: binding and elution of Palivizumab; conditions: fraction of injected protein bound; 0.5 mg/ml IgG in PBS pH 7.3
Summary of the method: as §1

SMILES	t0.8 (time-scale of binding) (Bevacizumab [1]) [min]	Bevacizumab Bound (Bevacizumab [2]) [%]	Bevacizumab Yield (Bevacizumab [2]) [%]	half-life [3] [days]	qm (maximum capacity) (Bevacizumab [4]) [mg/mL]	Cetuximab Bound (Cetuximab) [%]	HCP Bound (host cell proteins (HCP)) [%]	h-poly-IgG Bound [5] [%]	Tocilizumab Bound (Tocilizumab) [%]	Palivizumab Bound (Palivizumab) [%]	Kd (Bevacizumab [4]) [µM]
NCCCNc1ccc(C(=O)Nc2nc(-c3ccccn3)cs2)cn1 [Ligand L40, 6-[(3-Amino-1-propyl)amino]nicotinic acid N-[4-(2-pyridyl)thiazol-2-yl] amide]	9.2	100	101	32.6	39	100	20.5	98	99	89	–
CCc1nc2cc(C(=O)Nc3nc(-c4ccccn4)cs3)ccc2n1CCCN [Ligand L43, 1-(3-Amino-1-propyl)-2-ethylbenzimidazole-5-carboxylic acid N-[4-(2-pyridyl)thiazol-2-yl] amide]	8.2	100	95	> 41.6	43	100	18	100	100	98	399
NCCCn1cnc2cc(C(=O)Nc3nncs3)ccc21 [Ligand L13, 1-(3-Amino-1-propyl)benzimidazole-5-carboxylic acid N-(1,3,4-thiadiazol-2-yl) amide]	7.0	100	98	> 41.6	37	100	21	97	100	97	–
CCc1nc2cc(C(=O)Nc3nnc(-c4ccco4)s3)ccc2n1CCCN [Ligand L44, 1-(3-Amino-1-propyl)-2-ethylbenzimidazole-5-carboxylic acid N-[5-(2-furyl)-1,3,4-thiadiazol-2-yl] amide]	7.7	100	88	> 41.6	53	100	16	100	100	100	265
NCCCn1cnc2cc(NC(=O)c3cn4ccsc4n3)ccc21 [Ligand L30, 1-(3-Amino-1-propyl)-5-[(imidazo-[2,1-b]thiazol-6-yl)carboxamido]benzimidazole]	9.3	100	100	37.6	40	100	21	94	100	93	358
Cn1nc(C(=O)Nc2ccc3c(c2)ncn3CCCN)c2ccccc21 [Ligand L01, 1-(3-Amino-1-propyl)-5-[(1-methylindazol-3-yl)carboxamido]benzimidazole]	9.2	100	90	35	40	100	33	100	100	99	210
NCCCn1cnc2cc(C(=O)Nc3nc(-c4ccccn4)cs3)ccc21 [Ligand L23, 1-(3-Amino-1-propyl)benzimidazole-5-carboxylic acid N-[4-(2-pyridyl)thiazol-2-yl] amide]	7.7	100	107	> 41.6	46	100	13	100	100	100	122
NCCCn1cnc2cc(C(=O)Nc3nc(-c4ccncc4)cs3)ccc21 [Ligand L47, 1-(3-Amino-1-propyl)benzimidazole-5-carboxylic acid N-[4-(4-pyridyl)thiazol-2-yl] amide]	5.6	100	100	> 41.6	43	100	13	100	99	98	169
NCCCNc1ccc(C(=O)Nc2nnc(-c3ccco3)s2)cn1 [Ligand L19, 6-[(3-Amino-1-propyl)amino]nicotinic acid N-[5-(2-furyl)-1,3,4-thiadiazol-2-yl]amide]	8.9	100	98	> 41.6	42	100	14	98	100	99	578
CCc1nnc(NC(=O)c2ccc3c(c2)ncn3CCCN)s1 [Ligand L07, 1-(3-Amino-1-propyl)benzimidazole-5-carboxylic acid N-(2-ethyl-1,3,4-thiadiazol-5-yl) amide]	8.8	100	93	> 41.6	38	100	23	94	100	90	200
NCCCn1cnc2cc(C(=O)Nc3nc(-c4cccnc4)cs3)ccc21 [Ligand L46, 1-(3-Amino-1-propyl)benzimidazole-5-carboxylic acid N-[4-(3-pyridyl)thiazol-2-yl] amide]	6.0	100	103	30	48	100	17	100	100	98	185
